Data from patent US20140127235A1, “TARGETING HK alpha FOR CONTROLLING BLOOD PRESSURE AND REGULATING ELECTROLYTE BALANCE” (UNIVERSITY OF FLORIDA RESEARCH FOUNDATION, INC., priority 2011, published 2014).

Experiments:
Assay type in all cases: in vivo, mouse
[1] = Time course of the physiological effect of DOCP treatment in wild type mice (body weight, blood electrolytes); conditions: for Change in BW (%) / Blood [Cl−] / Blood [HCO3−] / Blood [K+] / Blood [Na+]: wild type mice; for Change in BW (%): DOCP 1.7 mg i.m.
Method: A primary goal of the study was to characterize the temporal changes in body weight, Na^+, K^+, and acid-base homeostasis during chronic mineralocorticoid excess. Body weight and blood electrolytes were measured over an eight day time course in untreated (control) mice and those treated with DOCP (1.7 mg) (Table 1).
(§1) Mice were fed normal lab chow, given free access to water, and given an i.m. injection of 1.7 mg DOCP (Percorten V, Novartis Pharmaceuticals). For perfusion and expression studies, mice were sacrificed with Na^+ pentobarbital (i.p. 120 mg/kg) followed by cervical dislocation. For time course experiments, another group of animals were anesthetized with 3-4% isoflurane and aortic blood was collected into a heparinized syringe for immediate analysis of electrolytes and blood gases (Nova pHOx Plus analyzer, Nova Biomedical). For high K^+ diet studies, mice were given a normal, powdered diet (TD99131, Teklad) supplemented with KCl to equal 5% K^+ which was then made as a gel. Half of the mice were treated with DOCP. Blood and tissues were collected as in the time course experiments. For urinalysis experiments, mice were housed in metabolic cages for thirteen days and fed a normal gel diet with free access to a water bottle. On day five, mice were treated with DOCP as above. Urine and feces were collected daily. Urine electrolytes were measured on a clinical analyzer (Nova 16 analyzer, Nova Biomedical) and fecal electrolytes were measured on a digital flame photometer (Model 2655-00, Cole-Parmer).

[2] = tested on: HKα1 mRNA; test: Real time PCR of renal HKα1 mRNA expression in DOCP-treated mice; conditions: cortex, outer medulla and inner medulla, eight days after DOCP, normal diet
Source text: The principal mechanism of mineralocorticoid action is through modulation of target gene transcription.^15 Therefore, the next experiments evaluated the effect of DOCP on renal HKα1 and HKα2 mRNA expression. Real time quantitative PCR was used to investigate changes in steady state mRNA levels of H^+,K^+-ATPase α subunits, HKα1 and HKα2, in cortex, outer medulla, and inner medulla of control and DOCP-treated mice.
RNA was recovered from cortex, medulla, and inner medulla with TRIzol reagent (Invitrogen). RNA was treated with DNase 1 (Ambion DNA Free) and converted to cDNA using SuperScript III (Invitrogen). For real time quantitative PCR, 20 ng cDNA was used to quantify mRNA expression with TaqMan Gene Expression (Applied Biosystems) primer/probe sets for HKα1 (Atp4a, Mm00444423_m1), HKα2 (Atp12a, Mm0131809_m1), and β-actin (Actb, Mm00607939_s1). Cycle threshold (Ct) values were normalized to β-actin, and relative expression (control set to 100%) was calculated by the ΔΔCt method.^28

[3] = tested on: H^+,K^+-ATPase; test: H+,K+-ATPase-mediated H+ secretion (JH) in intercalated cells of microperfused inner cortical collecting ducts from DOCP-treated mice (BCECF-AM)
Method: One likely mechanism for mineralocorticoid-induced changes in acid-base homeostasis was stimulation of renal H^+,K^+-ATPase activity in response to mineralocorticoid-induced K^+ deficits. Therefore, H^+,K^+-ATPase activity was assessed in inner cortical collecting ducts from control and DOCP-treated mice. Individual intercalated cells from microperfused collecting ducts were loaded with the pH sensitive fluorescent dye, BCECF-AM. The addition of inhibitors of the Na^+/H^+ exchanger and the H^+-ATPase allowed for the measurement of H^+,K^+-ATPase-mediated H^+ secretion (JH) in response to an acute intracellular acid load (NH4Cl). The overall rate of H^+,K^+-ATPase-mediated JH in intercalated cells from control mice was quite slow (˜15H^+/min) (FIG. 1).
Additional experiments were conducted to identify which intercalated cell subtype was responsible for the DOCP-induced increase in H^+,K^+-ATPase mediated JH. Again, the rate of H^+,K^+-ATPase-mediated JH was measured in intercalated cells of inner cortical collecting ducts from control and DOCP-treated mice. At the end of the experiment, A- and B-type ICs were differentiated by peritubular Cl^− removal and return as has been described previously^12,13 The characteristic inverse responses of A- and B-type intercalated cells to Cl^− removal and return were observed (Table 2). […]
Inner cortical collecting ducts were hand dissected at 4° C., transferred to a mounting chamber and perfused as described previously.^25 The ratiometric, pH sensitive dye, BCECF-AM (15 μM, Invitrogen) was added to the luminal perfusate for 10 minutes and fluorescence measurements were performed after dye de-esterification. […] Recovery rates were calculated from the linear portion of the pH, recovery phase starting with the lowest pH, achieved. The intrinsic buffering capacity was calculated from the formula βi=ΔHi/ΔpHi where ΔHi is the change in the calculated [NH4]i and ΔpHi the change in pHi during the acid loaded phase. Acid secretion rates (JH) were calculated from the formula JH=βi*ΔpH, (U/min) and expressed as [H^+]/min. […]

[4] = Effect of high K+ (5%) diet on physiological response of wild type mice to DOCP treatment; conditions: eight days after DOCP
Method: Deficits in K^+ homeostasis have long been known to stimulate H^+,K^+-ATPase activity and HKα subunit expression. […] For this experiment, mice were fed a high K^+ diet and then left untreated (control) or given DOCP treatment. Body weight and blood electrolytes were measured eight days after treatment and kidneys were collected for analysis of HKα, and HKα2 mRNA expression by real time PCR.
as §1

With `CC(C)(C)C(=O)OCC(=O)[C@H]1CC[C@H]2[C@@H]3CCC4=CC(=O)CC[C@]4(C)[C@H]3CC[C@]12C` [DOCP, desoxycorticosterone pivalate] the “Change in BW (%)” value ([1]; Day 2) was 0.06 ± 1.2 (7) %, the “Change in BW (%)” value ([1]; Day 4) was 2.0 ± 1.2 (7) % and the “Change in BW (%)” value ([1]; Day 6) was 5.4 ± 1.4 (7)**^,† %. For the same molecule, the “Change in BW (%)” value ([1]; Day 8) was 6.1 ± 1.2 (7)**^,† %, the “Blood [Cl−]” value ([1]; Day 2 of DOCP) was 120 ± 1.8 (3) mM and the “Blood [HCO3−]” value ([1]; Day 2 of DOCP) was 19 ± 0.87 (4) mM. The “Blood [K+]” value ([1]; Day 2 of DOCP) was 3.5 ± 0.12 (4) mM, the “Blood [Na+]” value ([1]; Day 2 of DOCP) was 150 ± 1.3 (3) mM and the “Blood [Cl−]” value ([1]; Day 4 of DOCP) was 116 ± 0.95 (4) mM. The “Blood [HCO3−]” value ([1]; Day 4 of DOCP) was 20 ± 1.2 (4) mM, the “Blood [K+]” value ([1]; Day 4 of DOCP) was 3.5 ± 0.17 (4) mM and the “Blood [Na+]” value ([1]; Day 4 of DOCP) was 153 ± 1.8 (4) mM. The “Blood [Cl−]” value ([1]; Day 6 of DOCP) was 117 ± 0.35 (3) mM, the “Blood [HCO3−]” value ([1]; Day 6 of DOCP) was 20 ± 0.53 (3) mM and the “Blood [K+]” value ([1]; Day 6 of DOCP) was 2.9 ± 0.21 (3) mM. The “Blood [Na+]” value ([1]; Day 6 of DOCP) was 153 ± 0.80 (3) mM, the “Blood [Cl−]” value ([1]; Day 8 of DOCP) was 111 ± 0.82 (3)*^,**^,†,‡ mM and the “Blood [HCO3−]” value ([1]; Day 8 of DOCP) was 23 ± 2.0 (3) mM. For the same molecule, the “Blood [K+]” value ([1]; Day 8 of DOCP) was 2.8 ± 0.07 (3)*^,† mM, the “Blood [Na+]” value ([1]; Day 8 of DOCP) was 150 ± 0.41 (3) mM and the “decrease in blood [Cl−]” value ([1]; wild-type mice, eight days of DOCP treatment) was “approximately 7 mM”. For the same molecule, the “HKα1 mRNA expression compared to control” value [2] was “not significantly altered”, the “increase in H+,K+-ATPase-mediated JH” value ([3]; A-type intercalated cells, DOCP-treated versus control mice) was “approximately 60%” and the “rate of H+,K+-ATPase-mediated JH” value ([3]; B type ICs, DOCP-treated versus control mice) was “not affected”. The “increase in H+,K+-ATPase-mediated JH” value ([3]; intercalated cells from DOCP-treated mice (eight days) versus control) was “greater than 60%”, the “Blood [Cl−]” value [4] was 121 ± 1.30 mM and the “Blood [HCO3−]” value [4] was 18.2 ± 1.01 mM. The “Blood [K+]” value [4] was 4.30 ± 0.18 mM, the “Blood [Na+]” value [4] was 151 ± 0.88 mM and the Body weight change [4] was -0.17 ± 0.27 g.
